Tests used:
[1] = tested on: bilirubin oxidase (BOD), coated BOD 4 (Example 1, coated at 4° C.)
Procedure: (§1) First, 40 mg of BOD and 1 mg of ethylenediaminetetraacetic acid (EDTA) used as a stabilizer were dissolved in 3.8 mL of a 100 mM boric acid solution (pH 9.3). Subsequently, 6.0 mg of N-acryloxysuccinimide was dissolved in 0.2 mL of DMSO, and the solution was then gradually added to the boric acid buffer. The resulting solution was allowed to react at 4° C. for 10 hours. Subsequently, the resulting acryloylated BOD in which acryloyl groups were introduced was purified using a Sephadex G25 column at 4° C.
(§2) Subsequently, at 4° C., a mixture prepared by mixing acrylamide and N,N′-methylenebisacrylamide in a molar ratio of 10:1 was dissolved in 0.5 mL of deionized water free of oxygen. The solution was homogeneously added to the above acryloylated BOD solution, and the resulting solution was allowed to react for 60 minutes. The reaction was further performed in the presence of nitrogen at 4° C. for 60 minutes. Finally, the coated BOD (hereinafter referred to as “coated BOD 3”) was purified using a Sephadex G75 column.
(§3) The Michaelis constants (KM) and the reaction rate constants (kcat) of coated BOD 3, coated BOD 4, free BOD 2, and free BOD 3 prepared above were measured under the conditions shown in Table 4. […] The amount of protein of each BOD sample was determined by BCA colorimetric protein assay from a calibration curve of BSA used as a standard protein.

[2] = tested on: bilirubin oxidase (BOD), coated BOD 3 (Example 1, coated at 4° C.)
Procedure: as §1, §2, §3

[3] = tested on: bilirubin oxidase (BOD), free BOD 2 (not coated, stored at 25° C.); conditions: ABTS, pH 7.0, 25° C., oxygen saturation
Procedure: (§4) As controls, BOD on which coating was not performed and which was stored at 25° C. for the same period of time as that is necessary for the process of preparing coated BOD 4 (hereinafter referred to as “free BOD 2”), and BOD on which coating was not performed and which was stored at 4° C. for the same period of time as that is necessary for the process of preparing coated BOD 4 (hereinafter referred to as “free BOD 3”) were used.
as §3

[4] = tested on: bilirubin oxidase (BOD), free BOD 3 (not coated, stored at 4° C.); conditions: oxygen saturation
Procedure: as §4, §3

[5] = tested on: bilirubin oxidase (BOD), free BOD 1 (not coated, stored at 4° C.); conditions: oxygen saturation
Procedure: As a control, BOD on which coating was not performed and which was stored at 4° C. for the same period of time as that is necessary for the process of preparing coated BOD 2 (hereinafter referred to as “free BOD 1”) was used.
as §3, with “1,” for “3,”, “coated” for “coated BOD 4, free”, “1” for “3”, “1 below.” for “4.”, “bicinchoninic acid (BCA)” for “BCA”, “bovine serum albumin (BSA)” for “BSA”

[6] = tested on: bilirubin oxidase (BOD), coated BOD 2 (Reference Example)
Procedure: (§5) The solution was homogeneously added to the above acryloylated BOD solution, and the resulting solution was allowed to react for 60 minutes.
as §3, with “1,” for “3,”, “coated” for “coated BOD 4, free”, “1” for “3”, “1 below.” for “4.”, “bicinchoninic acid (BCA)” for “BCA”, “bovine serum albumin (BSA)” for “BSA”

[7] = tested on: bilirubin oxidase (BOD), coated BOD 1 (Reference Example)
Procedure: as §5
as §3, with “1,” for “3,”, “coated” for “coated BOD 4, free”, “1” for “3”, “1 below.” for “4.”, “bicinchoninic acid (BCA)” for “BCA”, “bovine serum albumin (BSA)” for “BSA”

kcat ([1]; coated BOD 4, ABTS, pH 7.0, 25° C., oxygen saturation): 52.7 s⁻¹
Michaelis constant (KM) compared with free BOD 2 and free BOD 3 ([1]; coated BOD 4 vs free BOD 2 and free BOD 3): about twice
Km ([1]; read-out: KM,ABTS, coated BOD 4, 3.30 nM, ABTS 0.05 to 7 mM, pH 7.0 sodium phosphate, 25° C., oxygen saturation, 730 nm): 670 µM
kcat ([2]; coated BOD 3, ABTS, pH 7.0, 25° C., oxygen saturation): 52.5 s⁻¹
Michaelis constant (KM) compared with free BOD 2 and free BOD 3 ([2]; coated BOD 3 vs free BOD 2 and free BOD 3): about twice
Km ([2]; read-out: KM,ABTS, coated BOD 3, 1.09 nM, ABTS 0.05 to 7 mM, pH 7.0 sodium phosphate, 25° C., oxygen saturation, 730 nm): 570 µM
kcat [3]: 158 s⁻¹
kcat ([4]; free BOD 3, ABTS, pH 7.0, 25° C.): 216 s⁻¹
Km ([4]; read-out: KM,ABTS, free BOD 3, 0.629 nM, ABTS 0.05 to 7 mM, pH 7.0 sodium phosphate, 25° C., 730 nm): 358 µM
kcat ([5]; free BOD 1, ABTS, pH 7.0, 25° C.): 234 s⁻¹
Km ([5]; read-out: KM,ABTS, free BOD 1, 712 pM, ABTS 0.05 to 10 mM, pH 7.0 sodium phosphate, 25° C., 730 nm): 307 µM
kcat ([6]; coated BOD 2, ABTS, pH 7.0, 25° C., oxygen saturation): 1.92 s⁻¹
Michaelis constant (KM) compared with free BOD 1 ([6]; coated BOD 2 vs free BOD 1): no significant difference
Km ([6]; read-out: KM,ABTS, coated BOD 2, 19.7 nM, ABTS 0.05 to 10 mM, pH 7.0 sodium phosphate, 25° C., oxygen saturation, 730 nm): 405 µM
kcat ([7]; coated BOD 1, ABTS, pH 7.0, 25° C., oxygen saturation): 10.2 s⁻¹
Michaelis constant (KM) compared with free BOD 1 ([7]; coated BOD 1 vs free BOD 1): no significant difference
Km ([7]; read-out: KM,ABTS, coated BOD 1, 2.05 nM, ABTS 0.05 to 10 mM, pH 7.0 sodium phosphate, 25° C., oxygen saturation, 730 nm): 383 µM
SMILES: CCn1c(=NN=c2sc3cc(S(=O)(=O)O)ccc3n2CC)sc2cc(S(=O)(=O)O)ccc21.N.N [ABTS, 2,2′-Azino-bis(3-ethylbenzothiazoline-6-sulfonic acid) diammonium salt]
